The text below walks through data of patent publication US20070219268A1, “Anti-cancer activity augmentation compounds and formulations and methods of use thereof” (BioNumerik Pharmaceuticals, Inc., priority 2006, published 2007).

Molecules are shown by their SMILES. Entries after “also recorded” stand apart in the source; their conditions may differ.

Assay [1] addresses T1, thioredoxin reductase (TRR) (Bos taurus, UniProt O62768).
T1 sequence (O62768 1-499): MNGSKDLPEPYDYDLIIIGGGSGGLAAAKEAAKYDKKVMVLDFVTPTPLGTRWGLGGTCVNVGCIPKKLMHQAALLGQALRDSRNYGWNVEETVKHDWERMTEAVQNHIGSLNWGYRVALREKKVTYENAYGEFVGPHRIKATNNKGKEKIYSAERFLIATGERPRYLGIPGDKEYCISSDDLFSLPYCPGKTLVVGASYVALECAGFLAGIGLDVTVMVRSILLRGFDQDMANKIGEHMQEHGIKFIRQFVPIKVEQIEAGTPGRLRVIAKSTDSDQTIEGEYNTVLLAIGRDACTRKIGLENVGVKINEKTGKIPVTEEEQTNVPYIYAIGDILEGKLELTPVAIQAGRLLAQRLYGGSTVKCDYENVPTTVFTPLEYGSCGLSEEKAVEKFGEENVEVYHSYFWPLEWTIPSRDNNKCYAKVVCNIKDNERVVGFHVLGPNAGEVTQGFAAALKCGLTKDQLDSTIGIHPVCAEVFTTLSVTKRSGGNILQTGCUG
Briefly: NADPH oxidation at 340 nm by TRR in the absence of TRX. Type of assay: biochemical, bovine. On the procedure: (§1) The activity of TRR and TRX was determined by following NADPH oxidation at 340 nm according to the previously reported method. See, Luthman, M., and Holmgren, A. Rat liver thioredoxin and thioredoxin reductase: purification and characterization. Biochemistry 21:6628-6633 (1982). A typical assay mixture contained TR buffer (50 mM potassium phosphate, pH 7.0, 1 mM EDTA), 200 μM NADPH, 1.6 μg bovine TRR, and one or more of the following: 4.8 μM TRX, 86 μM insulin, and one of the disulfides described herein. All disulfides were added to reactions as 10× solutions in TR buffer. The total volume of each reaction was 0.1 mL. Reactions were initiated by the addition of TRR and were incubated at 25° C. for 40 min. The activity was calculated using a 4 min. linear portion of each reaction. Enzyme assays were carried out using either a Molecular Devices SpectraMaxPlus UV plate reader or a Varian Cary 100 UV-visible Spectrophotometer.
(§2) Data was then collected and plotted in Microsoft Excel. Error calculations, and graphical representations were performed in Microsoft Excel and Kaleidograph (ver. 3.5). Nonlinear data was graphically rendered using Kaleidograph. ANOVA and other statistical analyses were performed using SAS (ver. 8.2). Unless otherwise noted, significance level was set at 0.05, and error bars represent actual experimental standard deviation.

The next assay concerns the target T2, thioredoxin (TRX) (Homo sapiens, UniProt P10599).
T2 sequence (P10599 1-105): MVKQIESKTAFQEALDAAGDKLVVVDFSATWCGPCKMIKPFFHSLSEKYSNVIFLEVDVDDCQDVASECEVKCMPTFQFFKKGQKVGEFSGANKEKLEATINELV
Nature of the assay: NADPH oxidation at 340 nm by TRR in the presence of TRX. The format is biochemical. How it is done:
as §1, §2

The target of a further assay is T3, glutaredoxin (Homo sapiens, UniProt P35754).
T3 sequence (P35754 1-106): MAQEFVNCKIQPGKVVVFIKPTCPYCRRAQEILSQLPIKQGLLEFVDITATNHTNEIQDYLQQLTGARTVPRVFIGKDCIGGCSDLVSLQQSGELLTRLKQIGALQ
Briefly: Glutaredoxin assay in the presence of reduced glutathione and glutathione reductase. The format is biochemical. From the text: In addition to the absence of interference with anti-cancer activity, results from in vivo studies have shown that Tavocept™ may elicit the restoration of apoptotic sensitivity in tumor cells through thioredoxin- and glutaredoxin-mediated mechanisms and this may be an important element of its effectiveness as a chemotherapeutic agent.

The target in assay [2] is T4, glutathione-S-transferase (GST), m1-1 isotype (Homo sapiens, UniProt P09488).
T4 construct: purchased
T4 sequence (P09488 1-218): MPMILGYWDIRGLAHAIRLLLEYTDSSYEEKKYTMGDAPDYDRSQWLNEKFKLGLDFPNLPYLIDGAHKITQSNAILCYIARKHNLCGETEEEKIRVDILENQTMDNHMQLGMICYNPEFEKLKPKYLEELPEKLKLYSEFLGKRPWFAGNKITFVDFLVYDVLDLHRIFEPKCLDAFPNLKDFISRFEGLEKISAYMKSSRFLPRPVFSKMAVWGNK
Nature of the assay: GST assay: conjugation of reduced glutathione to CDNB, absorbance at 340 nm. Type of assay: biochemical. The conditions noted are these: difference of relative activity from 100%. An excerpt: The following experiments were designed to determine if Tavocept™ has an inhibitory or stimulatory effect on GST. […] An in vitro assay for GST has been developed and reported. See, Meyer, D. J. and Ketterer, B., Purification of soluble human glutathione S-transferases. Methods Enzymol. 252:53-65 (1995). This assay monitors the conjugation of reduced glutathione to 1-chloro-2,4-dinitrobenzene (CDNB), as illustrated in Reaction Scheme II, below.
Reduced thiol forms a conjugate with CDNB (extinction coefficient=9600 M^−1 cm^−1), which is detected at 340 nm. Stock solutions of GSH, CDNB, Tavocept™ were prepared by dissolving the reagent in sterile water at the concentrations listed below prior to use. […] Slopes were measured in the linear range of the assay (i.e., typically between 5 to 10 min.). In assays where the effect of Tavocept™ on GST activity was measured, 20 μL of either a 500 mM, 166.7 mM, or 55.6 mM stock solution of Tavocept™ was added to standard reactions using 1 mM GSH as the enzyme substrate. […]
Raw data was obtained on a Cary 100 spectrophotometer. […] No absorbance values were collected during the process of enzyme addition. […] It was during this time that reaction rates (i.e., slopes of change in absorbance with time) were measured using the Cary 100 software. […]

Where [3] appears, read: based on magnitude and concentration-dependence of oxidation responses.

With `O=S(=O)([O-])CCSSCCS(=O)(=O)[O-].[Na+].[Na+]` [Tavocept™, disodium 2,2′-dithio-bis-ethane sulfonate], the “substrate for TRR” value in assay [1] (setting [3]) is “not for TRR”. For the same compound, the “NADPH oxidation by TRR in the absence of TRX” value in assay [1] (no TRX, 200 μM NADPH, 25° C.) is “indistinguishable from background”. Further, at thioredoxin (TRX) (4.8 μM TRX, 200 μM NADPH, 25° C.), the “NADPH oxidation by TRR in the presence of TRX” value is on record as “concentration-dependent increase”. In addition, the “substrate for TRX” value on thioredoxin (TRX) (setting [3]) is “most likely a substrate for TRX; also recorded: substrate for thioredoxin”. Further, the activity with glutaredoxin result on glutaredoxin was “substrate-like activity”. Besides, the “Percent Inhibition” value in assay [2] (1.1 mM Tavocept) is on record as 5.6%; in assay [2] (3.3 mM Tavocept), 39%.
